This is an account of results in ChEMBL document CHEMBL1150093, “Santolindiacetylene, a polyacetylene derivative isolated from the essential oil of Santolina canescens” (J Nat Prod, 1995).

≈ marks a conversion by molar mass, not a printed value.

The test system of assay [1] is Radical scavenging activity. The assay can be described thus: Antioxidant activity assessed as DPPH radical scavenging activity. The class given is functional.
The test system of assay [2] is Rattus norvegicus. The experiment in a line: Antihepatotoxic activity against carbon tetrachloride-induced hepatotoxicity in Wistar rat liver assessed as decrease in serum glutamate pyruvate transaminase level at 7 mg/kg, ip administered 24 hrs before carbon tetrachloride intoxication relative to control. The class given is functional. The arrangement: scale not given: the % may be the effect or the level left. The note with it: route intraperitoneal.

Assay [3] concerns Rattus norvegicus. The assay can be described thus: Antihepatotoxic activity against carbon tetrachloride-induced hepatotoxicity in Wistar rat liver assessed as decrease in hepatic malondialdehyde level at 7 mg/kg, ip administered 24 hrs before carbon tetrachloride intoxication. The class given is functional. To be noted: route intraperitoneal.
In assay [4] the test system is Rattus norvegicus. The assay can be described thus: Antihepatotoxic activity against carbon tetrachloride-induced -induced hepatotoxicity in Wistar rat liver assessed as decrease in hepatic malondialdehyde level at 7 mg/kg, ip administered 24 hrs before carbon tetrachloride intoxication relative to control. The class given is functional. The note with it: route intraperitoneal. The arrangement: scale not given: the % may be the effect or the level left.

The subject of assay [5] is Rattus norvegicus. The experiment in a line: Antihepatotoxic activity against carbon tetrachloride-induced hepatotoxicity in Wistar rat assessed as decrease in serum glutamate pyruvate transaminase level at 7 mg/kg, ip administered 24 hrs before carbon tetrachloride intoxication. The class given is functional. The note with it: route intraperitoneal.
Assay [6] has as its system Rattus norvegicus. The assay can be described thus: Antihepatotoxic activity against carbon tetrachloride-induced hepatotoxicity in Wistar rat liver assessed as decrease in hepatic malondialdehyde level at 35 mg/kg, ip administered 24 hrs before carbon tetrachloride intoxication relative to control. Set-up: dose 35 mg/kg; scale not given: the % may be the effect or the level left. The assay is classed as functional, organism-based.

The subject of assay [7] is Rattus norvegicus. The assay can be described thus: Antihepatotoxic activity against carbon tetrachloride-induced hepatotoxicity in Wistar rat liver assessed as decrease in hepatic malondialdehyde level at 35 mg/kg, ip administered 24 hrs before carbon tetrachloride intoxication. The arrangement: dose 35 mg/kg. The assay is classed as functional, organism-based.
Assay [8] relates to Rattus norvegicus. The assay can be described thus: Antihepatotoxic activity against carbon tetrachloride-induced hepatotoxicity in Wistar rat liver assessed as decrease in serum glutamate pyruvate transaminase level at 35 mg/kg, ip administered 24 hrs before carbon tetrachloride intoxication. The class given is functional, organism-based. Set-up: dose 35 mg/kg.
The test system of assay [9] is Rattus norvegicus. The experiment in a line: Antihepatotoxic activity against carbon tetrachloride-induced hepatotoxicity in Wistar rat liver assessed as decrease in serum glutamate pyruvate transaminase level at 35 mg/kg, ip administered 24 hrs before carbon tetrachloride intoxication relative to control. The class given is functional, organism-based. The arrangement: dose 35 mg/kg; scale not given: the % may be the effect or the level left.

Broadly, the EC50 is the concentration at which the effect is half-maximal. As to `CC1=CCC(C(C)C)=CC1` [GAMMA-TERPINENE], in [1], the 50% effective concentration (EC50) worked out at 22 mg/mL (≈ 161 mM).

For `C=C1CCC2(C(C)C)CC12` (centres undefined) [SABINENE], the EC50 in assay [1] was 232.7 mg/mL (≈ 1710 mM).

As for `CC#CC#CCc1ccc2ccccc2c1` [SANTOLINDIACETYLENE], the Activity in assay [1] is 1.7 µg/mL; in the assay on Rattus norvegicus [2], 19.8%; in the assay on Rattus norvegicus [3], 0.182 nmol/mL; with Rattus norvegicus [4], 33.3%; in the assay on Rattus norvegicus [5], 23.3 IU/L.

`CC12CCC(CC1=O)C2(C)C` (centres undefined) [CAMPHOR]: the EC50 in assay [1] worked out at 2.4 mg/mL (≈ 15.8 mM).

On to `C=C1CCC2CC1C2(C)C` (stereo not drawn) [BETA-PINENE], for which the EC50 in assay [1] worked out at 220.1 mg/mL (≈ 1620 mM).

On to `C=C1C=CC(C(C)C)CC1` (stereo not drawn) [BETA-PHELLANDRENE], for which the EC50 in [1] was determined as 127.7 mg/mL (≈ 937 mM).

Regarding `CC1=CCC2CC1C2(C)C` (stereo not drawn) [ALPHA-PINENE], in assay [1], the EC50 turned out to be 330.6 mg/mL (≈ 2430 mM).

Regarding `O=C1O[C@H]([C@@H](O)CO)C(O)=C1O`, in assay [1], the Activity turned out to be 2.7 µg/mL.

In the case of `Cc1ccc(C(C)C)cc1` [P-CYMENE], the EC50 in [1] came out at 408 mg/mL (≈ 3040 mM).

On to SILYMARIN, for which the Activity with Rattus norvegicus [6] worked out at 36.6%; with Rattus norvegicus [7] it was 0.2 nmol/mL; in [1], 24.6 µg/mL; with Rattus norvegicus [8], 27.9 IU/L; in the assay with Rattus norvegicus [9], 23.7%.

In the case of `C=C1CC/C=C(/C)CC[C@@H]2[C@@H]1CC2(C)C` [CARYOPHYLLENE], the EC50 in assay [1] was 0.0037 mg/mL (≈ 0.0181 mM).

As to `CC1=CC[C@@H](C(C)(C)O)CC1` [ALPHA-TERPINEOL], the concentration for a half-maximal effect (EC50) in [1] was 0.1463 mg/mL (≈ 0.948 mM).

`C=C(C)C1CC=C(C)C(=O)C1` (centres undefined) [CARVONE]: in [1], the EC50 is 11.7 mg/mL (≈ 77.9 mM).

With `CC1(C)C2CCC1(C)C(O)C2` (centres undefined) [BORNEOL], in [1], the EC50 was 2.4 mg/mL (≈ 15.6 mM).

`C=CC(=C)CCC=C(C)C` [MYRCENE]: the EC50 in [1] is 248 mg/mL (≈ 1820 mM).

For `CC1=CCC(O)(C(C)C)CC1` (centres undefined) [TERPINEOL], the EC50 in assay [1] is 53.7 mg/mL (≈ 348 mM).
